How the values were obtained:
naïve human CD4 cells = assay: Co-stimulated expansion of flow-sorted naïve CD4 cells with or without rapamycin; assay type: cell-based; conditions: in rapamycin relative to control culture
Source text: (§1) To this extent, naïve or memory human CD4 cells were purified by flow sorting, and co-stimulated either with or without rapamycin (results in FIG. 31).

[1] = tested on: memory CD45RO^+ sorted cells; assay: Co-stimulated expansion of flow-sorted memory CD4 cells with or without rapamycin; assay type: cell-based, human; conditions: in rapamycin relative to control culture
Source text: as §1

Compound: CO[C@H]1C[C@@H]2CC[C@@H](C)[C@@](O)(O2)C(=O)C(=O)N2CCCC[C@H]2C(=O)O[C@H]([C@H](C)C[C@@H]2CC[C@@H](O)[C@H](OC)C2)CC(=O)[C@H](C)/C=C(\C)[C@@H](O)[C@@H](OC)C(=O)[C@H](C)C[C@H](C)/C=C/C=C/C=C/1C [rapamycin]
- reduction in CD4 yield (naïve human CD4 cells): ~25%
- reduction in CD4+ T cell expansion [1]: ~50%
